These results are taken from article PMC9500072, “Topical application of an irreversible small molecule inhibitor of lysyl oxidases ameliorates skin scarring and fibrosis” (Nature Communications, 2022).

By IC50 is commonly meant the concentration that inhibits the measured activity by half.

Like-named read-outs stand apart in the source and are kept apart here. Where only a bound is given, the exact number is not on record here.

Holding throughout (type): biochemical
One test deals with T1, Human Recombinant SSAO (Homo sapiens, UniProt Q16853).
T1 sequence (Q16853 1-763): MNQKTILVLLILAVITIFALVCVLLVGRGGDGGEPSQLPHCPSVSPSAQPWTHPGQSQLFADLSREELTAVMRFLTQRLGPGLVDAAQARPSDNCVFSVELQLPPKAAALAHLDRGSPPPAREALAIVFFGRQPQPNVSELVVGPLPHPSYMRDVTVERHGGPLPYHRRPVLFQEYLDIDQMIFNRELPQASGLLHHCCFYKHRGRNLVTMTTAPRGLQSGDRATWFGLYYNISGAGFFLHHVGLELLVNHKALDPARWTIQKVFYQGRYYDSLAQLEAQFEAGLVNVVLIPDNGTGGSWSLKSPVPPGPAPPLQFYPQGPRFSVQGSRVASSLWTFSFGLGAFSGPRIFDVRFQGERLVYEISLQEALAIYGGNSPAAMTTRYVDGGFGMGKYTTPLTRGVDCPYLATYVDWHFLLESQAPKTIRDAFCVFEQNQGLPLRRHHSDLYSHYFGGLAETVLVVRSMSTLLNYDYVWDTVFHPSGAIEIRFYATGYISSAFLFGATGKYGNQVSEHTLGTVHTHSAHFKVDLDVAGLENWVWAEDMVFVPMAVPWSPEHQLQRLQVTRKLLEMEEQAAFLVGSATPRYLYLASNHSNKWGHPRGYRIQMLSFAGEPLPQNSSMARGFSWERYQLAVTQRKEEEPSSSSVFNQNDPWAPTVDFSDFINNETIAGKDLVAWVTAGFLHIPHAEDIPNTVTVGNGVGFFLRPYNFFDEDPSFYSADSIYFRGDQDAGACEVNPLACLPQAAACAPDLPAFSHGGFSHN
As to the kind of experiment: Amine oxidase inhibition profile, SSAO. The source says:
(§1) Supplem entary Materi als:
(§2) Supplementary Table S1: Amine oxidase inhibition profile of PXS -4787, PXS-6302 and
(§3) Supplementary Table S2: Perm eability profile of PXS -6302.

A further test deals with T2, Human Recombinant MAO-B (Homo sapiens, UniProt P27338).
T2 sequence (P27338 1-520): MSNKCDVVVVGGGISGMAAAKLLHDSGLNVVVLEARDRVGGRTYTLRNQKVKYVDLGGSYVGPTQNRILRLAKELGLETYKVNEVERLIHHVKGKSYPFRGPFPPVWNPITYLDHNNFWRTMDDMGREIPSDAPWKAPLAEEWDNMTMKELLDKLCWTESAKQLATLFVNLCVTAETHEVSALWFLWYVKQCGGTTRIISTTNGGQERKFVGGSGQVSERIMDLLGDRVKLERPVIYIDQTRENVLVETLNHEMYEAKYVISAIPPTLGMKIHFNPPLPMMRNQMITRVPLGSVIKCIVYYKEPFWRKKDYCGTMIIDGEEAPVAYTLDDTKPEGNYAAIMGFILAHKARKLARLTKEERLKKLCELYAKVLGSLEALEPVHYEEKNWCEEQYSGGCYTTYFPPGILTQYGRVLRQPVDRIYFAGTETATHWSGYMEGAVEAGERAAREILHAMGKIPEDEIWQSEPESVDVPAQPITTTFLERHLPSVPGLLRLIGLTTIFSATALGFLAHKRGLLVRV
As to the kind of experiment: Amine oxidase inhibition profile, MAO-B.
Excerpt: as §1, §2, §3

The target of a further test is T3, DAO (Homo sapiens, UniProt P19801).
T3 sequence (P19801 20-751): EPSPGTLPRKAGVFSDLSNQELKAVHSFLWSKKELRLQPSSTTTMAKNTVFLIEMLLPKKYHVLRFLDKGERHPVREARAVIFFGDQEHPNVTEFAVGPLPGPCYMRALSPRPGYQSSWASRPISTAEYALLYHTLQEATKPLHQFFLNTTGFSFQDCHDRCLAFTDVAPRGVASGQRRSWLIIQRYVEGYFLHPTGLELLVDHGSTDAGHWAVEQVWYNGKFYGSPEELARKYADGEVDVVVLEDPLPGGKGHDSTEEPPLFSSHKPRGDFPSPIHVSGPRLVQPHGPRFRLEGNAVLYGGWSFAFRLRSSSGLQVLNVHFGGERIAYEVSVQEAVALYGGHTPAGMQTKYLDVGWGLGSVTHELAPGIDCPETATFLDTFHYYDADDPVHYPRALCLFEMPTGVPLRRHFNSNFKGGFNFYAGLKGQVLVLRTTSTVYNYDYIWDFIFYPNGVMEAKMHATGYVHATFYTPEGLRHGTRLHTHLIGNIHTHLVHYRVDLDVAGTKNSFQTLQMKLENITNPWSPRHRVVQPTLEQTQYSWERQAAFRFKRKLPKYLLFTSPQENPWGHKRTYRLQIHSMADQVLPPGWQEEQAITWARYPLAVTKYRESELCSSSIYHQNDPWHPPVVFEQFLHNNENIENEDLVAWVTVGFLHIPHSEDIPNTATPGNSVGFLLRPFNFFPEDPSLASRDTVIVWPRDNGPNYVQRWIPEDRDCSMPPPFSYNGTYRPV
Kind of test: Amine oxidase inhibition profile, DAO.
Excerpt: as §1, §2, §3

Setting [1] is: read-out: Recombinant SSAO IC50.
Setting [2] is: read-out: Recombinant MAO-B IC50.

In the case of `N#CCCN` [BAPN, β-aminoproprionitrile, reference compound], the “Recombinant SSAO pIC50” value at Human Recombinant SSAO was less than 4. The IC50 was greater than 100 µM at Human Recombinant SSAO (setting [1]), greater than 100 µM on Human Recombinant MAO-B (setting [2]) and greater than 30 µM at DAO (read-out: Recombinant DAO IC50). Moreover, the “Recombinant MAO-B pIC50” value on Human Recombinant MAO-B was less than 4. The “Recombinant DAO pIC50” value on DAO is reported as less than 4.5.
Consider `NC/C=C(\F)CS(=O)(=O)c1ccccc1` [PXS-4787], for which the IC50 at Human Recombinant SSAO (setting [1]), on Human Recombinant MAO-B (setting [2]) and at DAO (read-out: Recombinant DAO IC50) was greater than 100 µM each time.
With `NC/C=C(\F)C(F)(F)S(=O)(=O)c1ccccc1` [PXS-6302], the IC50 on Human Recombinant SSAO, on Human Recombinant MAO-B and at DAO was greater than 30 µM each time.
